# Measured values: patent US12502388B2, “Lanthionine synthetase C-like 2-based therapeutics” (NImmune Biopharma, Inc., priority 2014, dated 2025)
# Entries after “also recorded” stand apart in the source; their conditions may differ.
# What was measured:
# LANCL2 = biological target: T1, LANCL2 (Homo sapiens, UniProt Q9NS86); test: Surface plasmon resonance (BIACORE T200) binding to immobilized LANCL2; settings: for Kd: unit inferred, read-out: SPR KD value
# T1 sequence (Q9NS86 1-450): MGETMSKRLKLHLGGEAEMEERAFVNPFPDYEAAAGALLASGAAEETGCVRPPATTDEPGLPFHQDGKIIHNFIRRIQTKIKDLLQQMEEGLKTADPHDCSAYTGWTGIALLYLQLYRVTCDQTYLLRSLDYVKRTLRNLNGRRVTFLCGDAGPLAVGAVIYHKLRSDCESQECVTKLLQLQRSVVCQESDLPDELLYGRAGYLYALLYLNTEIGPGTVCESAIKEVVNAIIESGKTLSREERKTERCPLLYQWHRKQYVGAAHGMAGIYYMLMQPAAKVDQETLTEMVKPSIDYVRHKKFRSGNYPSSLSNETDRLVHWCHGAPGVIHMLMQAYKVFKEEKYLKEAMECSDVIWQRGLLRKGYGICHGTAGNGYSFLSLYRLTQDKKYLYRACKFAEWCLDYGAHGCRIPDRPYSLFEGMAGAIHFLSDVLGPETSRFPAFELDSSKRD
# Text: Kinetic determination of LANCL2-small molecule interaction. […] Data were generated in a dose dependent (5-8 titration points) manner in triplicate, and analyzed to determine binding model (Langmuir, conformational shift, etc.), real time associated and disassociation constants, and equilibrium dissociation constant. SPR technology allowed validation of specific LANCL2-phytochemical interactions as well as to gain gold-standard insight into mechanism and rate of binding. The experiments were performed on carboxymethyldextran (CM5) sensor chips by covalently attaching LANCL2 to by amine coupling. Flow cells 1 and 2 of the sensor chip were activated for 720 sec at 10 μl/min with of 1:1 mixture of 0.1 M N-hydroxysuccinimide (NHS) and 0.5 M 1-ethyl-3-(−3-dimethylaminopropyl)-carbodiimide hydrochloride (EDC). Stock LANCL2 (0.41 mg/mL) was diluted to 8.2 μg/mL (1:50 dilution) in 10 mM sodium acetate, pH 5.0 and injected over the activated flow cell 2 surface for 1000 sec at a flow rate of 10 μl/min. After the capture of LANCL2 on flow cell 2 (11000 RU), surfaces of flow cells 1 and 2 were deactivated by injecting 1M ethanolamine for 720 sec at 10 μl/min. The running buffer was 25 mM MOPS containing 0.05% T-20 and 0.15 M NaCl, pH 6.5. […] Each sample was injected for 60 sec (contact time) followed by a dissociation time of 60 sec at a flow rate of 100 μL/min. A stabilization time of 180 sec was used before the next injection. Data was analyzed with BIACORE™ T200 Evaluation Software (version 1) to determine the affinity binding constant (KD) using a 1:1 binding model.
# We immobilized purified recombinant LANCL2 protein on BIACORE™ sensor chips and injected small molecules over the protein surface using the microfluidic system of the instrument. Changes in the total mass on chip surface were measured, which corresponds to the small binding to the protein. […] These fast interactions are beyond the technical abilities of the instrument. Therefore, reliable association rate constant (ka) and dissociation rate constant (kd) were not determined. The equilibrium dissociation constant (KD) is commonly used to describe the affinity between a ligand and a protein, such as how tightly a ligand binds to a particular protein. Ligand-protein affinities are influenced by non-covalent intermolecular interactions between the two molecules such as hydrogen bonding, electrostatic interactions, hydrophobic and Van der Waals forces. By plotting the equilibrium binding level against the compound concentration, we were able to measure the steady state affinity (KD) for each interaction (FIG. 8, panels B and D).
# In this case we also immobilized purified recombinant LANCL2 protein on BIACORE™ sensor chips and injected small molecules over the protein surface using the microfluidic system of the instrument. Changes in the total mass on chip surface were measured, which corresponds to the small binding to the protein. […] This longer binding can potentially impact the activation of the LANCL2 pathway by triggering more efficacious anti-inflammatory and anti-diabetic and other therapeutic responses.
# [1] = system: IL-10-/- mice with chronic colitis
# [2] = system: C57BL/6 mice fed a high-fat diet
# [3] = system: C57BL/6J mice with DSS colitis
# Procedure: Mice. […] All mice were maintained in animal facilities.
# DSS-induced colitis. Colitis was induced in C57BL/6J mice by administration of 5% (w/v) dextran sodium sulfate (DSS; molecular weight 42 kDa; ICN Biochemicals, Aurora, OH) added to the drinking water. Colonic inflammation was assessed 7 days after DSS treatment. […] DSS-treated, vehicle-treated mice, and iv. […] Twelve mice were included in each group.
# Quantitative Real-Time PCR. […] Primers were designed using Oligo 6 software.
# [4] = system: RAG2-/- mice transferred with naive CD4+ T cells
# [5] = system: mice infected with influenza virus
# Procedure: Intranasal infection of mice with influenza virus. Mice were anesthetized with 2-5% isofluorane using a vaporizer station, and 50 μL of virus dilution at 10^3 TCID50 was administered through the nostrils (25 μL each one). Mice were then placed in their cages and watched for recovery of anesthesia.
# This procedure caused no pain or distress.
# Monitoring of mice and disease activity and weighing. Mice were monitored once daily after the infection (or every 4 hours if they developed severe clinical signs of disease equivalent to disease score 2) and were euthanized prior to the planned endpoint if they developed significant signs of illness as measured by weight loss (i.e., 25% gradual loss of initial body weight), dehydration, loss of mobility, guarding/protection of painful area, ruffled fur (piloerection). Mice were weighed once a day for the duration of the experiment.
# [6] = gene expression, dose-dependent
# [7] = gene expression vs untreated mice
# [8] = flow cytometry, wild-type vs LANCL2-/-
# [9] = CD4+ T cells from LANCL2-/- donors
# Text for NOD mice: Mice. […] The mice were maintained in animal facilities.
# (§1) Assessment of body weight and glucose tolerance.
# Text for db/db mice: Mice and dietary treatments. […] The mice were maintained in animal facilities.
# as §1
structure (smiles),measurement,setting,value
O=C(c1cccc(-c2nc3ccccc3[nH]2)n1)N1CCN(C(=O)c2cccc(-c3nc4ccccc4o3)n2)CC1 [BT-15],binding to LANCL2 by SPR in words,LANCL2,strongly bind
same,on and off rates in SPR sensorgrams,LANCL2,very fast on rates and very fast off rates
same,Kd,LANCL2,11.4 µM
O=C(Nc1ccc(NC(=O)c2cccc(-c3nc4ccccc4[nH]3)c2)cc1)c1cccc(-c2nc3ccccc3[nH]2)c1 [BT-6],binding to LANCL2 by SPR in words,LANCL2,strongly bind
same,on and off rates in SPR sensorgrams,LANCL2,very fast to bind but not as fast as off
O=C(c1cccc(-c2nc3ccccc3[nH]2)n1)N1CCN(C(=O)c2cccc(-c3nc4ccccc4[nH]3)n2)CC1 [BT-11],binding to LANCL2 by SPR in words,LANCL2,strongly bind
same,on and off rates in SPR sensorgrams,LANCL2,very fast on rates and very fast off rates
same,Kd,LANCL2,6.3 µM
same,glucose levels following glucose challenge,db/db mice; 0 to 265 minutes after IP glucose,fell toward normal levels more rapidly
same,fasting blood glucose,"db/db mice; 80 mg/Kg daily oral gavage, weeks 1 and 3",significantly decreased
same,glucose prior to the IP glucose challenge (time 0),db/db mice; 12-h fast,significantly decreases
same,"disease activity index scores, highest dose vs lower doses","[1]; 80 mg/Kg, from week 13 to end",significantly reduced the scores in comparison to those treated with either 20 or 40 mg/Kg
same,"macroscopic scores in spleen, MLNs and colon","[1]; 19 weeks, concentrations as low as 20 mg/Kg",greatly and significantly reduced
same,disease activity index scores,"[1]; 20, 40 and 80 mg/Kg vs vehicle",significantly decreased
same,"colonic histopathology (leukocytic infiltration, epithelial erosion, mucosal thickening)",[1]; H&E colon sections,significantly reduced inflammation
same,FOXP3-expressing CD4+ T cells in MLN and spleen,[1]; flow cytometry,upregulation
same,FOXP3-expressing CD4+ T cells in the colonic LP,[1]; flow cytometry,upregulation
same,effector Th17 cells (RORγt) in the MLN,[1]; flow cytometry,downregulated
same,percentage of F4/80+ macrophages in colonic lamina propria,[1]; flow cytometry,significantly decreased
same,percentage of MHC-II+ CD11c+ dendritic cells in colonic lamina propria,[1]; flow cytometry,significantly decreased
same,percentage of effector Th1 cells in colonic lamina propria,[1]; flow cytometry,significantly decreased
same,Th1 cells in the spleen,"[1]; flow cytometry, dose response",downregulation
same,colonic expression of LANCL2,[1]; [6],upregulates
same,colonic expression of TNFα,[1]; [6],downregulates
same,normalization of blood glucose after IP glucose challenge,[2]; 2 g/Kg glucose IP after 12 h fasting,significantly faster
same,F4/80+ CD11b+ pro-inflammatory macrophages in white adipose tissue,[2]; flow cytometry,significantly reduced
same,pro-inflammatory granulocytes (GR1+Ly6chigh) in white adipose tissue,[2]; flow cytometry,significantly reduced
same,expression of LANCL2 in WAT,[2]; [7],higher expression levels
same,mRNA level of MCP-1 in WAT,[2]; [7],significantly lower mRNA levels
same,mRNA level of TNFα in WAT,[2]; [7],significantly lower mRNA levels
same,fasting blood glucose,"[2]; week 12 of high-fat feeding, vs vehicle",significantly decreased
same,disease activity score,"[3]; 5% DSS, 7-day challenge, oral BT-11 vs vehicle",significantly improved
same,"leukocytic infiltration, mucosal thickening and epithelial erosion, dose-response",[3]; 10 to 80 mg/Kg,decreased in mice with colitis as the dose of BT-11 was increased
same,histopathological lesions of the colonic mucosa in LANCL2-/- mice,"[3]; LANCL2-/- mice, vehicle or BT-11",the loss of LANCL2 completely abrogates the effect of BT-11
same,upregulation of IL-10 secretion in colon and spleen,[3]; LANCL2 knockout mice,completely abrogated in LANCL2 knockout mice
same,"decrease of inflammation in the gut mucosa (leukocytic infiltration, epithelial erosion, mucosal thickening)",[3]; colonic histopathology,5 times
same,"macroscopic lesions in spleen, MLNs and colon",[3]; day 7 post-challenge,significantly decreased
same,colonic IL-10 expression by flow cytometry,[3]; dose-response study,follows dose-response dynamics
same,FOXP3 expression in the MLN,"[3]; dose-response study, flow cytometry",dose-dependent
same,upregulation of MHC-II+ CD11c+ granulocytes,"[3]; flow cytometry, colon, wild-type vs LANCL2-/-",LANCL2-dependent
same,reduction of colonic TNFα expressing cells,"[3]; flow cytometry, doses 10, 20, 40, 80 mg/Kg","significantly different at both 40 and 80 mg/Kg of BT-11, but not on lower doses"
same,reduction of MCP1 in colon and MLN,[3]; [8],LANCL2-dependent
same,secretion of TNFα in the colon,[3]; [8],LANCL2-dependent
same,colonic gene expression of IL-10,"[3]; mouse, in vivo",upregulated
same,colonic gene expression of LANCL2,"[3]; mouse, in vivo",upregulated
same,colonic gene expression of TNFα,"[3]; mouse, in vivo",down-regulated
same,"macroscopic score in colon, MLN and spleen in LANCL2-/- mice",[3]; wild-type vs LANCL2-/- littermates,the loss of LANCL2 abrogated the decrease in macroscopic score
same,recovery from colitis (disease activity index) in LANCL2-/- mice,[3]; wild-type vs LANCL2-/- mice,the loss of LANCL2 prevented the mice to recover
same,effects on disease activity and histopathology with PPARγ-/- donor CD4+ T cells,[4]; 80 mg/Kg,PPARγ independent
same,"macroscopic scores in spleen, MLNs, colon and ileum","[4]; 80 mg/Kg, 11 weeks",greatly and significantly reduced
same,"decrease in leukocytic infiltration, epithelial erosion and mucosal thickening in LANCL2-/- transferred recipients",[4]; [9],greatly abrogated
same,effect on disease activity index with LANCL2-/- donor cells,[4]; [9],completely abrogated with the loss of LANCL2
same,macroscopic scores with loss of LANCL2,"[4]; LANCL2-/- cells transferred, 80 mg/Kg",the loss of LANCL2 completely abrogated the effect of BT-11
same,IFNγ levels in total CD45+ leukocytes in the colon,[4]; flow cytometry,decrease
same,IL-10 in CD4+ T cells in the colonic mucosa,[4]; flow cytometry,promoting the expression
same,expression of IFNγ in the CD45+ population in MLN and spleen,[4]; flow cytometry,decreased
same,levels of FOXP3 and IL-10 in spleen and MLN,[4]; flow cytometry,increases
same,regulatory CD4+ T cells (FOXP3) in the colonic mucosa,[4]; flow cytometry,upregulated
same,infiltrating F4/80+ CD11b+ pro-inflammatory macrophages in the colon,"[4]; flow cytometry, 11 weeks of treatment",significantly lower level
same,weight loss,"[4]; from 7 weeks until end, vs vehicle",significantly improved
same,epithelial erosion in the colon,[4]; histopathology,significantly lower
same,inflammation: leukocytic infiltration and mucosal thickening in colon and ileum,[4]; histopathology,significantly reduced inflammation
same,disease activity index score,"[4]; wild-type CD4+ T cells transferred, BT-11 vs vehicle",significantly reduced
same,fasting blood glucose,"NOD mice; 12 h fasting, weeks 0-11, 80 mg/kg/d vs vehicle",significantly lower levels
same,clinical histopathological lesions in the pancreas,NOD mice; vs vehicle,significantly reduces
same,insulin levels in plasma,NOD mice; week 5,significantly increased levels
same,morbidity (mice losing over 15% of body weight),"[5]; 80 mg/Kg, from day 6 post-infection, vs vehicle",less morbidity
same,clinical score for physical appearance,[5]; 40 and 80 mg/Kg,significantly reduced
same,activity clinical score,"[5]; from day 3, oral 80 or 40 mg/Kg daily",significantly reduced
O=C1CC=C(/C=C/c2ccc(C(=O)O)o2)CC1 [BT-ABA-5a],binding to LANCL2 by SPR in words,LANCL2,strongly bind
same,on and off rates in SPR sensorgrams,LANCL2,very fast to bind but not as fast as off; also recorded: slowest off rate
